Measured values published in US8415469B2, “Compounds and methods for kinase modulation, and indications therefor” (Plexxikon Inc., priority 2005, dated 2013).
pIC50: −log10 of the molar value.

How the values were obtained:
Format in all cases: biochemical
[1] = target: T1, c-Raf-1 (Homo sapiens, UniProt P04049); experiment: AlphaScreen kinase assay, c-Raf-1; conditions: read-out: IC50, activity toward kinase c-Raf-1
T1 construct: purchased Upstate Biotechnology

[2] = target: T2, Fak (Homo sapiens, UniProt Q05397); experiment: AlphaScreen kinase assay, Fak; conditions: read-out: IC50, activity toward kinase Fak
T2 construct: P1358.pFastBacHtb FAK S411-Q686-X; His6 with pFastBacHTb leader (TEV site) (N); made in house; host or cells: Sf9 (baculovirus)
T2 sequence (Q05397 411-686): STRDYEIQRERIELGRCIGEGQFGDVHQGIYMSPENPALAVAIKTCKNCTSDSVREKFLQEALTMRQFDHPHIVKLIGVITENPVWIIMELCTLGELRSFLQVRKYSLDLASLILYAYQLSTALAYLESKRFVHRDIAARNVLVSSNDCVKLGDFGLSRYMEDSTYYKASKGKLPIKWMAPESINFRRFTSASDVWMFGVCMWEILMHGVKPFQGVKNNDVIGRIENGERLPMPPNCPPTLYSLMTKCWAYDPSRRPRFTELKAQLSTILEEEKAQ

[3] = target: T3, Flt1 (Homo sapiens, UniProt P17948); experiment: AlphaScreen kinase assay, Flt1; conditions: read-out: IC50, activity toward kinase Flt1
T3 construct: P1826.pETN6 BI-PTP FLT1 M799-D1165-X WT; His6 (N); made in house; host or cells: E. coli (PTP1B co-expressed)
T3 sequence (P17948 with tags, fused parts or gaps): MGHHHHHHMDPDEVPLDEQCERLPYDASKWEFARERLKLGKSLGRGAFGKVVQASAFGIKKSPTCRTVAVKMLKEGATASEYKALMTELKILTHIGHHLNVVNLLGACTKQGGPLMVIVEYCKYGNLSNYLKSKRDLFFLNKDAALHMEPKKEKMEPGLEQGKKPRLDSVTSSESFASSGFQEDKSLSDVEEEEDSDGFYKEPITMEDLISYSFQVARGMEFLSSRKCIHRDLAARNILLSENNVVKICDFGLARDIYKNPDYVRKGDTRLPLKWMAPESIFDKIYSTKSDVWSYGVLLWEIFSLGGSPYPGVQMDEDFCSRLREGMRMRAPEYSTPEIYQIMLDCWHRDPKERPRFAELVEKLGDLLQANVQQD

[4] = target: T4, Jnk3 (Homo sapiens, UniProt P53779); experiment: AlphaScreen kinase assay, Jnk3; conditions: read-out: IC50, activity toward kinase Jnk3
T4 construct: purchased Upstate Biotechnology
T4 sequence (P53779 whole entry): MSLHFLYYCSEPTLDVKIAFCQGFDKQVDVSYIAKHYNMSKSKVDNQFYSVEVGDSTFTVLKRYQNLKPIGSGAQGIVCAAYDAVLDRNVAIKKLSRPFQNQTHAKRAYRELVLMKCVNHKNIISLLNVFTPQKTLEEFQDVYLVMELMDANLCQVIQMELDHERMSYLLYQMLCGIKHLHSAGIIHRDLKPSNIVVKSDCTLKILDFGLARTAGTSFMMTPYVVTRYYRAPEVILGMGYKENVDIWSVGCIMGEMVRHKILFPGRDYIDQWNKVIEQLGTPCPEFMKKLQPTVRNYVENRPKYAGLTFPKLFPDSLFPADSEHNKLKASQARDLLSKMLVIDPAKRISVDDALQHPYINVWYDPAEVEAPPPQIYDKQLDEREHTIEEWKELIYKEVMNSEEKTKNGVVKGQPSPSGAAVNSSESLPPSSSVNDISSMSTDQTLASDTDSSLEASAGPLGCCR

[5] = target: T5, Met (Homo sapiens, UniProt P08581); experiment: AlphaScreen kinase assay, Met; conditions: read-out: IC50, activity toward kinase Met
T5 construct: P1818.pETN6 BI-PTP MET G1056-G1364-X WT; His6 (N); made in house; host or cells: E. coli (PTP1B co-expressed)
T5 sequence (P08581 with tags, fused parts or gaps): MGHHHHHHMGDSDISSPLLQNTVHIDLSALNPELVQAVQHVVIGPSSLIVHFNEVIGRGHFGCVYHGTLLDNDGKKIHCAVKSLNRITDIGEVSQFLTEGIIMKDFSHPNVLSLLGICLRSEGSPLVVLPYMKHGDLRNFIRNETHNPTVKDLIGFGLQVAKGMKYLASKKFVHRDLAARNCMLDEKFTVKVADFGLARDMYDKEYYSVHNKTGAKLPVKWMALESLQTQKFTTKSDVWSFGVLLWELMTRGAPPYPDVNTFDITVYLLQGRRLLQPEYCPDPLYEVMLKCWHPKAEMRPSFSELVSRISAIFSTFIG
Summary of the method: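 Inhibition reads as diminished acceptor emission, since unphosphorylated peptide fails to bridge antibody acceptor beads and streptavidin donor beads. Titration: eight points, 1:3 steps, stocks at 20 mM in DMSO.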

[6] = target: T6, Src (Homo sapiens, UniProt P12931); experiment: AlphaScreen kinase assay, Src; conditions: read-out: IC50, activity toward kinase Src
T6 construct: P1144. pET-N6 BI-PTP SRC V86-L536-X; made in house
T6 sequence (P12931 with tags, fused parts or gaps): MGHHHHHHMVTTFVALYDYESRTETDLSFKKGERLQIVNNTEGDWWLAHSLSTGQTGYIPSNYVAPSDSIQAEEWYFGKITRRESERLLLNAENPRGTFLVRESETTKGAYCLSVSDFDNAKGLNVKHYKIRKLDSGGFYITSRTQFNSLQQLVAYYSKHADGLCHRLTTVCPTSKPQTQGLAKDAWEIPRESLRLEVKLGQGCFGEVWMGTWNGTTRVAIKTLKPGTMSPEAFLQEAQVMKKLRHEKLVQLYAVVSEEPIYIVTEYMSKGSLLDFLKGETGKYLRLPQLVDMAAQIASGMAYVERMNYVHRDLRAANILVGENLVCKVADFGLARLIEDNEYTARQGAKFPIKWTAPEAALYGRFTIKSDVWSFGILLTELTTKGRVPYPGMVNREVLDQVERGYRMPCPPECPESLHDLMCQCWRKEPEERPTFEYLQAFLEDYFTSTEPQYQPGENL

[7] = target: T7, Stk6 (Homo sapiens, UniProt O14965); experiment: Z'-Lyte FRET kinase assay (Invitrogen), Stk6; conditions: read-out: IC50, activity toward kinase Stk6
T7 construct: purchased Invitrogen (Carlsbad, Calif.), screening service
T7 sequence (O14965 1-403): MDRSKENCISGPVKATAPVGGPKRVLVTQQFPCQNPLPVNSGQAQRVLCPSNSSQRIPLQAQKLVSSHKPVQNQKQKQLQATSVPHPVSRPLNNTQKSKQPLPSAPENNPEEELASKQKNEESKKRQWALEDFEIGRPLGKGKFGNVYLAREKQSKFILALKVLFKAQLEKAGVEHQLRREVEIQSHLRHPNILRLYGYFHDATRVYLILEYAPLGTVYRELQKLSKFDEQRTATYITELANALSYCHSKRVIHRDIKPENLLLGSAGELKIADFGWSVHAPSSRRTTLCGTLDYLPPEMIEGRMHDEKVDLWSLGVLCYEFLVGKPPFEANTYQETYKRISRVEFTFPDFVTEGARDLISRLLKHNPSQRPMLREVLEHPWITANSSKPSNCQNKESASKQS

Measured: pIC50

T1 sequence (P04049 whole entry): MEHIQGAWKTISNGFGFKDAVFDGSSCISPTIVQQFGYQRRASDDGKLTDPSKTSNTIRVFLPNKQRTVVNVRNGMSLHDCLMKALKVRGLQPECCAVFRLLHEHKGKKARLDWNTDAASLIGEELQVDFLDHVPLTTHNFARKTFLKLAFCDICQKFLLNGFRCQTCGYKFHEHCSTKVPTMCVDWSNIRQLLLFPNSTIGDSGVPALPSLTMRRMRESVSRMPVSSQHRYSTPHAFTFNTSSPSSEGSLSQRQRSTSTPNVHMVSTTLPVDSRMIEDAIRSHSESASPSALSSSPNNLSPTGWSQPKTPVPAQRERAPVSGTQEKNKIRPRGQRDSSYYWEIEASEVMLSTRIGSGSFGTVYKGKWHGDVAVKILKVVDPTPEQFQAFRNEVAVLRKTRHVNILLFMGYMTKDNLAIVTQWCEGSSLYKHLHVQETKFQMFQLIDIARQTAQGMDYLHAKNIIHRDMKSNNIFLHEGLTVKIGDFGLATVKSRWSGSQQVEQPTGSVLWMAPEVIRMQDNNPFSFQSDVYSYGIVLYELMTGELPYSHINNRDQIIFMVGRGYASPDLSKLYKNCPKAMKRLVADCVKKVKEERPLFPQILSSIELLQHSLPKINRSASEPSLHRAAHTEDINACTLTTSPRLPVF

CC(=O)Nc1cccc(-c2cnc3[nH]cc(C(=O)c4cc(O)ccc4F)c3c2)c1 [Compound P-0001]
≥ 5.00: all assays above

Oc1cccc(Cc2c[nH]c3ncc(-c4cccs4)cc23)c1F [Compound P-0052, 2-Fluoro-3-(5-thiophen-2-yl-1H-pyrrolo[2,3-b]pyridin-3-ylmethyl)-phenol]
≥ 5.00: [1] | [4] | [5] | [7]

COc1ccc(C(=O)c2c[nH]c3ncc(-c4cccc(/C=C/C(=O)O)c4)cc23)c(Cl)c1 [Compound P-0015]
≥ 5.00: [1] | [4] | [5] | [7]

Cc1c(NS(C)(=O)=O)cccc1C(=O)c1c[nH]c2ncc(-c3ccccc3)cc12 [Compound P-0082, N-[2-Methyl-3-(5-phenyl-1H-pyrrolo[2,3-b]pyridine-3-carbonyl)-phenyl]-methanesulfonamide]
not listed: [2] | [4]
≥ 5.00: all other assays above

CS(=O)(=O)c1cccc(-c2cnc3[nH]cc(C(=O)c4cc(O)ccc4F)c3c2)c1 [Compound P-0008, (2-Fluoro-5-hydroxy-phenyl)-[5-(3-methanesulfonyl-phenyl)-1H-pyrrolo[2,3-b]pyridin-3-yl]-methanone]
≥ 5.00: all assays above

Cn1cc(C(F)(F)F)c(-c2ccc(S(=O)(=O)NCc3c[nH]c4ncccc34)s2)n1 [Compound P-0041]
not listed: [1] | [2]
≥ 5.00: all other assays above

OCCOc1ccc(F)c(Cc2c[nH]c3ncc(-c4cccnc4)cc23)c1F [Compound P-1394, 2-[2,4-Difluoro-3-(5-pyridin-3-yl-1H-pyrrolo[2,3-b]pyridin-3-ylmethyl)-phenoxy]-ethanol]
not listed: [1] | [3]
≥ 5.00: all other assays above

Cc1c(O)cccc1C(=O)c1c[nH]c2ncc(-c3cccs3)cc12 [Compound P-0114, (3-Hydroxy-2-methyl-phenyl)-(5-thiophen-2-yl-1H-pyrrolo[2,3b]pyridin-3-yl)-methanone]
not listed: [7]
≥ 5.00: all other assays above

CS(=O)(=O)c1cccc(-c2cnc3[nH]cc(C(=O)c4cccc(O)c4F)c3c2)c1 [Compound P-0026, (2-Fluoro-3-hydroxy-phenyl)-[5-(3-methanesulfonylphenyl)1H-pyrrolo[2,3-b]pyridin-3-yl]-methanone]
not listed: [7]
≥ 5.00: all other assays above

O=C(Nc1ccc(Cc2c[nH]c3ncccc23)cc1)Nc1cccc(C(F)(F)F)c1 [Compound P-0262, 1-[4-(1H-Pyrrolo[2,3-b]pyridin-3-ylmethyl)-phenyl]-3-(3-trifluoromethyl-phenyl)-urea]
≥ 5.00: [1] | [5]

CCCC(=O)Nc1ccc(F)c(Cc2c[nH]c3ncc(-c4cccnc4)cc23)c1F [Compound P-1280]
not listed: [1] | [3]
≥ 5.00: all other assays above

Cc1ccc(S(=O)(=O)NCc2c[nH]c3ncccc23)cc1 [Compound P-0058]
≥ 5.00: [4] | [5] | [7]

CS(=O)(=O)Nc1cccc(-c2cnc3[nH]cc(C(=O)c4cccc(O)c4F)c3c2)c1 [Compound P-0038, N-{3-[3-(2-Fluoro-3-hydroxy-benzoyl)-1H-pyrrolo[2,3-b]pyridin-5-yl]-phenyl}-methanesulfonamide]
not listed: [2] | [7]
≥ 5.00: all other assays above

Cc1c(O)cccc1C(=O)c1c[nH]c2ncc(-c3ccccc3)cc12 [Compound P-0016, (3-Hydroxy-2-methyl-phenyl)-(5-phenyl-1H-pyrrolo[2,3b]pyridin-3-yl)-methanone]
not listed: [7]
≥ 5.00: all other assays above

Cc1ccc(F)cc1C(=O)c1c[nH]c2ncc(-c3cccc(NS(C)(=O)=O)c3)cc12 [Compound P-0028]
≥ 5.00: [5] | [6]

Nc1cccc(-c2cnc3[nH]cc(C(=O)c4cc(O)ccc4F)c3c2)c1 [Compound P-0002]
≥ 5.00: all assays above

Oc1ccc(F)c(Cc2c[nH]c3ncc(-c4cccnc4)cc23)c1F [Compound P-0078, 2,4-difluoro-3-(5-pyridin-3-yl-1H-pyrrolo[2,3-b]pyridin-3-ylmethyl)-phenol]
not listed: [7]
≥ 5.00: all other assays above

Cc1c(O)cccc1C(=O)c1c[nH]c2ncc(-c3cccnc3)cc12 [Compound P-0006, (3-Hydroxy-2-methyl-phenyl)-(5-pyridin-3-yl-1H-pyrrolo[2,3b]pyridin-3-yl)-methanone]
not listed: [3] | [7]
≥ 5.00: all other assays above

O=C(c1cccc(O)c1F)c1c[nH]c2ncc(-c3cccnc3)cc12 [Compound P-0027, (2-Fluoro-3-hydroxy-phenyl)-(5-pyridin-3-yl-1H-pyrrolo[2,3-b]pyridin-3-yl)-methanone]
not listed: [7]
≥ 5.00: all other assays above

CC(=O)Nc1cccc(-c2cnc3[nH]cc(C(=O)c4cccc(O)c4F)c3c2)c1 [Compound P-0035, N-{3-[3-(2-Fluoro-3-hydroxy-benzoyl)-1H-pyrrolo[2,3-b]pyridin-5-yl]-phenyl}-acetamide]
not listed: [3]
≥ 5.00: all other assays above
